What was measured:
[1] = molecular target: T1, human cloned CHRM2 receptor (M2_CHO cells) (Homo sapiens, UniProt P08172); test: CHRM2 Ca++ Flux Assay (agonist mode, FDSS 7000EX); type: cell-based; settings: for Emax: Percent Activity measured to EC100 of Carbachol, read-out: M2 FDSS PA; for EC50: agonist mode, geometric mean if tested more than once, read-out: M2 FDSS EC50
T1 construct: expressed in transfected cells; host or cells: CHO-K1
T1 sequence (P08172 1-466): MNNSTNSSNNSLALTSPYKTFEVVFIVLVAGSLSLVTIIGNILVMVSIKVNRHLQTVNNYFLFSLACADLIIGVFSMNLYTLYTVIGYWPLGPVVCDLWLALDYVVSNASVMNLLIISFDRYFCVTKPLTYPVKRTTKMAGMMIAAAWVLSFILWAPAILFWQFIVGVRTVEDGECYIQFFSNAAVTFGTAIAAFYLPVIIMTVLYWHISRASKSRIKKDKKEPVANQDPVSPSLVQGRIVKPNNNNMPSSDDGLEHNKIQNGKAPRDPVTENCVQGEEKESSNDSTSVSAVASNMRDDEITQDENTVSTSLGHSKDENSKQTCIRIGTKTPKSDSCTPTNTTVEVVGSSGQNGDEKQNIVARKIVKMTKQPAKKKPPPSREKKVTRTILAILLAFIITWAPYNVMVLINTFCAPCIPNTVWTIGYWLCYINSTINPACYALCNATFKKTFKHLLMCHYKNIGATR
Outline: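 Response expressed as percent activity versus the Carbachol EC100, with curves fitted by four-parameter non-linear regression of triplicates. Stable M2_CHO cells were Ca++ dye-loaded and preincubated 60 min at room temperature in assay buffer containing 20 μM ATP; signal imaged for 3 minutes after compound.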

[2] = molecular target: T2, human cloned CHRM4 receptor (M4_CHO cells) (Homo sapiens, UniProt P08173); test: CHRM4 Ca++ Flux Assay (agonist mode, FDSS 7000EX); type: cell-based; settings: for Emax: Percent Activity, read-out: M4 FDSS PA; for EC50: geometric mean if tested more than once, read-out: M4 FDSS EC50
T2 construct: expressed in transfected cells; host or cells: CHO-K1
T2 sequence (P08173 1-479): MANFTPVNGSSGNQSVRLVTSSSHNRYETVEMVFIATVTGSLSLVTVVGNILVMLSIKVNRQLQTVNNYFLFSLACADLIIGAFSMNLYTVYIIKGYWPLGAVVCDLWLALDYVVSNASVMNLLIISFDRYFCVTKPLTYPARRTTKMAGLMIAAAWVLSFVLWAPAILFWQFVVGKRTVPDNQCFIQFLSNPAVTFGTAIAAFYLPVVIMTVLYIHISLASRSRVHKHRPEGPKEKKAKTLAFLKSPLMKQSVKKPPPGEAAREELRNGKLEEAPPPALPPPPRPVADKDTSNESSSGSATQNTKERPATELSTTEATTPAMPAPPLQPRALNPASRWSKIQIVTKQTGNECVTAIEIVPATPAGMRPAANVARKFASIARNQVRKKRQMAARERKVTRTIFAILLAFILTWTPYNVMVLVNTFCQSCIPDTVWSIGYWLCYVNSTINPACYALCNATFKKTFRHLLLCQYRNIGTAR
Outline: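 Agonist-mode response was expressed as percent of the Carbachol EC100 and fitted with four-parameter nonlinear regression over an 11-point triplicate dose series. Intracellular Ca++ was tracked for 3 min by fluorescent dye in CHO-K1 cells stably expressing human CHRM4. Cells were preincubated 60 min with 20 μM ATP in buffer containing 2.5 mM probenecid.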

| SMILES | Emax [1] | EC50 [1] | Emax [2] | EC50 [2] |
| --- | --- | --- | --- | --- |
| O=C(C1COC1)N1CC2(CC[C@H](N3CCC(c4ccccc4OC(F)(F)F)CC3)C2)C1 (single isomer, unassigned) [Example 8G] | 0% | – | 24% | 274 nM |
| CC(C)(O)CCOc1ccccc1C1CCN([C@@H]2CCC3(C2)CN(c2nnco2)C3)CC1 [Example 1F] | 0% | – | 48% | 4 nM |
| c1ccc(C2CCN([C@@H]3CCC4(C3)CN(c3nncs3)C4)CC2)c(OCC2COC2)c1 [Example 1G, (R)-2-(6-(4-(2-(oxetan-3-ylmethoxy)phenyl)piperidin-1-yl)-2-azaspiro[3.4]octan-2-yl)-1,3,4-thiadiazole] | 38% | 75 nM | 82% | 1 nM |
| FC1(COc2ccccc2C2CCN([C@@H]3CCC4(C3)CN(c3nncs3)C4)CC2)COC1 [Example 1H, (R)-2-(6-(4-(2-((3-fluorooxetan-3-yl)methoxy)phenyl)piperidin-1-yl)-2-azaspiro[3.4]octan-2-yl)-1,3,4-thiadiazole] | 41% | 30 nM | 71% | 1 nM |
| c1ccc(C2CCN([C@@H]3CCC4(C3)CN(c3nncs3)C4)CC2)c(OCC2CCOCC2)c1 [Example 1I, (R)-2-(6-(4-(2-((tetrahydro-2H-pyran-4-yl)methoxy)phenyl)piperidin-1-yl)-2-azaspiro[3.4]octan-2-yl)-1,3,4-thiadiazole] | 28% | 92 nM | 61% | 4 nM |
| FC1(COc2ccccc2C2CCN([C@@H]3CCC4(C3)CN(c3nncs3)C4)CC2)CCOCC1 [Example 1J, (R)-2-(6-(4-(2-((4-fluorotetrahydro-2H-pyran-4-yl)methoxy)phenyl)piperidin-1-yl)-2-azaspiro[3.4]octan-2-yl)-1,3,4-thiadiazole] | 72% | 51 nM | 50% | 6 nM |
| c1ccc(C2CCN([C@@H]3CCC4(C3)CN(c3cncnc3)C4)CC2)c(OC2COC2)c1 [Example 1K, (R)-6-(4-(2-(oxetan-3-yloxy)phenyl)piperidin-1-yl)-2-(pyrimidin-5-yl)-2-azaspiro[3.4]octane] | 19% | 29 nM | 74% | 1 nM |
| c1ccc(C2CCN([C@@H]3CCC4(C3)CN(c3cncnc3)C4)CC2)c(OC2CCOCC2)c1 [Example 1L, (R)-2-(pyrimidin-5-yl)-6-(4-(2-((tetrahydro-2H-pyran-4-yl)oxy)phenyl)piperidin-1-yl)-2-azaspiro[3.4]octane] | 28% | 214 nM | 67% | 2 nM |
| c1ccc(C2CCN([C@@H]3CCC4(C3)CN(c3cncnc3)C4)CC2)c(OCC2CCOCC2)c1 [Example 1M, (R)-2-(pyrimidin-5-yl)-6-(4-(2-((tetrahydro-2H-pyran-4-yl)methoxy)phenyl)piperidin-1-yl)-2-azaspiro[3.4]octane] | 30% | 402 nM | 53% | 3 nM |
| c1ccc(C2CCN([C@@H]3CCC4(C3)CN(c3cncnc3)C4)CC2)c(OCC2COC2)c1 [Example 1N, (R)-6-(4-(2-(oxetan-3-ylmethoxy)phenyl)piperidin-1-yl)-2-(pyrimidin-5-yl)-2-azaspiro[3.4]octane] | 10% | 7 nM | 62% | < 0.4 nM |
| c1ccc(C2CCN([C@@H]3CCC4(C3)CN(c3cncnc3)C4)CC2)c(OC2CC3(COC3)C2)c1 [Example 1O, (R)-6-(4-(2-((2-oxaspiro[3.3]heptan-6-yl)oxy)phenyl)piperidin-1-yl)-2-(pyrimidin-5-yl)-2-azaspiro[3.4]octane] | 0% | – | 59% | 3 nM |
| c1ccc(C2CCN([C@@H]3CCC4(C3)CN(c3cncnc3)C4)CC2)c(O[C@@H]2CCOC2)c1 [Example 1P, (R)-2-(pyrimidin-5-yl)-6-(4-(2-(((R)-tetrahydrofuran-3-yl)oxy)phenyl)piperidin-1-yl)-2-azaspiro[3.4]octane] | 7% | 7 nM | 61% | 1 nM |
| CC(C)(O)COc1ccccc1C1CCN([C@@H]2CCC3(C2)CN(c2nnco2)C3)CC1 [Example 2A, (R)-1-(2-(1-(2-(1,3,4-oxadiazol-2-yl)-2-azaspiro[3.4]octan-6-yl)piperidin-4-yl)phenoxy)-2-methylpropan-2-ol] | 12% | 117 nM | 69% | 10 nM |
| COCCOc1ccccc1C1CCN([C@@H]2CCC3(C2)CN(c2nnco2)C3)CC1 [Example 2C] | 0% | – | 72% | 1 nM |

Further lines, results first:

| Emax [1] | EC50 [1] | Emax [2] | EC50 [2] | SMILES |
| --- | --- | --- | --- | --- |
| 37% | 36 nM | 92% | 2 nM | Fc1ccc(C2CCOC2)c(C2CCN([C@@H]3CCC4(C3)CN(c3nnco3)C4)CC2)c1 (mixture of isomers) [Example 2J, 2-((6R)-6-(4-(5-fluoro-2-(tetrahydrofuran-3-yl)phenyl)piperidin-1-yl)-2-azaspiro[3.4]octan-2-yl)-1,3,4-oxadiazole] |
| 0% | – | 35% | 100 nM | O=C(N1CC2(CC[C@H](N3CCC(c4ccccc4C4CCOCC4)CC3)C2)C1)C1(F)CC1 (single isomer, unassigned) [Example 9M] |
| 0% | – | 67% | 170 nM | c1ccc(C2CCN([C@H]3CCC4(C3)CN(c3nnco3)C4)CC2)c(C2CCOCC2)c1 (single isomer, unassigned) [Example 10T] |
| 0% | – | 81% | 1 nM | c1ccc(C2CCN([C@@H]3CCC4(C3)CN(c3nnco3)C4)CC2)c(OC2CC3(COC3)C2)c1 [Example 1A, (R)-2-(6-(4-(2-((2-oxaspiro[3.3]heptan-6-yl)oxy)phenyl)piperidin-1-yl)-2-azaspiro[3.4]octan-2-yl)-1,3,4-oxadiazole] |
| 40% | 35 nM | 79% | 1 nM | c1ccc(C2CCN([C@@H]3CCC4(C3)CN(c3nnco3)C4)CC2)c(OC2COC2)c1 [Example 1D, (R)-2-(6-(4-(2-(oxetan-3-yloxy)phenyl)piperidin-1-yl)-2-azaspiro[3.4]octan-2-yl)-1,3,4-oxadiazole] |
| 14% | 21 nM | 72% | 1 nM | c1ccc(C2CCN([C@@H]3CCC4(C3)CN(c3nnco3)C4)CC2)c(OC[C@@H]2COCCO2)c1 [Example 1E, 2-((R)-6-(4-(2-(((S)-1,4-dioxan-2-yl)methoxy)phenyl)piperidin-1-yl)-2-azaspiro[3.4]octan-2-yl)-1,3,4-oxadiazole] |
| 32% | 39 nM | 95% | < 0.4 nM | c1ccc(C2CCN([C@@H]3CCC4(C3)CN(c3nnco3)C4)CC2)c(O[C@@H]2CCOC2)c1 [Example 2B, 2-((R)-6-(4-(2-(((R)-tetrahydrofuran-3-yl)oxy)phenyl)piperidin-1-yl)-2-azaspiro[3.4]octan-2-yl)-1,3,4-oxadiazole] |
| 8% | 50 nM | 72% | 1 nM | FC1(COc2ccccc2C2CCN([C@@H]3CCC4(C3)CN(c3nnco3)C4)CC2)CCOCC1 [Example 2D, (R)-2-(6-(4-(2-((4-fluorotetrahydro-2H-pyran-4-yl)methoxy)phenyl)piperidin-1-yl)-2-azaspiro[3.4]octan-2-yl)-1,3,4-oxadiazole] |

Source: patent publication US12122761B2, “2-azaspiro[3.4]octane derivatives as M4 agonists” (NOVARTIS AG, priority 2019, dated 2024)
